Assay results as given in ChEMBL document CHEMBL1122489, “Pyrimidine derivatives. 4. Synthesis and antihypertensive activity of 4-amino-2-(4-cinnamoylpiperazino)-6,7-dimethoxyquinazoline derivatives” (J Med Chem, 1983).

How the values were obtained:
Format in all cases: functional
Rattus norvegicus [1] = assay: Antihypertensive activity rating in conscious SHR after 6 hr post dose at 1 mg/kg (po)
Rattus norvegicus [2] = assay: Antihypertensive activity rating in conscious SHR after 1 hr post dose at 3 mg/kg (po)
Rattus norvegicus [3] = assay: Effect on blood pressure in renal hypertensive rats dosed at 3 mg/kg after 3 h
Rattus norvegicus [4] = assay: Effect on blood pressure in renal hypertensive rats dosed at 10 mg/kg after 6 h
Rattus norvegicus [5] = assay: Antihypertensive activity rating in conscious SHR after 24 hr post dose at 3 mg/kg (po)
Rattus norvegicus [6] = assay: Effect on blood pressure in renal hypertensive rats dosed at 10 mg/kg after 3 h
Rattus norvegicus [7] = assay: Effect on blood pressure in renal hypertensive rats dosed at 10 mg/kg after 12 h
Rattus norvegicus [8] = assay: Effect on mean blood pressure (initial) in renal hypertensive rats dosed at 3 mg/kg
Rattus norvegicus [9] = assay: Antihypertensive activity rating in conscious SHR after 24 hr post dose at 0.3 mg/kg (po)
Rattus norvegicus [10] = assay: Maximum percent decrease in blood pressure in SHR dosed at 1 mg/kg (hour post dose in parentheses)
Rattus norvegicus [11] = assay: Effect on blood pressure in renal hypertensive rats dosed at 3 mg/kg after 12 h
Rattus norvegicus [12] = assay: Antihypertensive activity rating in conscious SHR after 1 hr post dose at 0.3 mg/kg (po)
Rattus norvegicus [13] = assay: Antihypertensive activity rating in conscious SHR after 24 hr post dose at 1 mg/kg (po)
Rattus norvegicus [14] = assay: Antihypertensive activity rating in conscious SHR after 3 hr post dose at 1 mg/kg (po)
Rattus norvegicus [15] = assay: Antihypertensive activity rating in conscious SHR after 3 h post dose at 3 mg/kg (po)
Rattus norvegicus [16] = assay: Maximum percent decrease in blood pressure in SHR dosed at 0.3 mg/kg (hour post dose in parentheses)
Rattus norvegicus [17] = species: Rattus norvegicus; assay: Compound was tested for alpha-adrenoceptor blocking activity by its ability to antagonize norepinephrine contraction in the rat thoracic aorta; details: read-out: pA2 (converted)
Rattus norvegicus [18] = assay: Antihypertensive activity rating in conscious SHR after 1 hr post dose at 1 mg/kg (po)
[19] = Potency ratio in rat thoracic aorta
Rattus norvegicus [20] = assay: Effect on blood pressure in renal hypertensive rats dosed at 3 mg/kg after 24 h
Rattus norvegicus [21] = assay: Antihypertensive activity rating in conscious SHR after 6 hr post dose at 3 mg/kg (po)
Rattus norvegicus [22] = assay: Effect on blood pressure in renal hypertensive rats dosed at 3 mg/kg after 1 h
Rattus norvegicus [23] = assay: Antihypertensive activity rating in conscious SHR after 3 hr post dose at 0.3 mg/kg (po)
Rattus norvegicus [24] = assay: Effect on blood pressure in renal hypertensive rats dosed at 10 mg/kg after 1 h
Rattus norvegicus [25] = assay: Effect on blood pressure (initial) in renal hypertensive rats dosed at 10 mg/kg
Rattus norvegicus [26] = assay: Maximum percent decrease in blood pressure in SHR dosed at 3 mg/kg (hour post dose in parentheses)
Rattus norvegicus [27] = assay: Effect on blood pressure in renal hypertensive rats dosed at 10 mg/kg after 24 h
Rattus norvegicus [28] = assay: Antihypertensive activity rating in conscious SHR after 6 hr post dose at 0.3 mg/kg (po)
Rattus norvegicus [29] = assay: Effect on blood pressure in renal hypertensive rats dosed at 3 mg/kg after 6 h
Rattus norvegicus [30] = assay: Effect on blood pressure in renal hypertensive rats dosed at 3 mg/kg, po after 3 h
Rattus norvegicus [31] = assay: Effect on blood pressure in renal hypertensive rats dosed at 10mg/kg, po after 1 h
Rattus norvegicus [32] = assay: Effect on blood pressure in renal hypertensive rats dosed at 3 mg/kg, po after 1 h
Rattus norvegicus [33] = assay: Effect on blood pressure in renal hypertensive rats dosed at 10 mg/kg, po after 24 h
Rattus norvegicus [34] = assay: Effect on blood pressure in renal hypertensive rats dosed at 3 mg/kg, po after 6 h
Rattus norvegicus [35] = assay: Effect on mean blood pressure (initial) in renal hypertensive rats dosed at 3 mg/kg, po
Rattus norvegicus [36] = assay: Effect on blood pressure in renal hypertensive rats dosed at 3 mg/kg, po after 24 h
Rattus norvegicus [37] = assay: Effect on blood pressure (initial) in renal hypertensive rats dosed at 10mg/kg, po
Rattus norvegicus [38] = assay: Effect on blood pressure in renal hypertensive rats dosed at 10 mg/kg, po after 3 h
Rattus norvegicus [39] = assay: Effect on blood pressure in renal hypertensive rats dosed at 10mg/kg, po after 6 h

Compound	Activity (Rattus norvegicus [1])	Activity (Rattus norvegicus [2])	Mean blood pressure (Rattus norvegicus [3]) [mmHg]	Mean blood pressure (Rattus norvegicus [4]) [mmHg]	Activity (Rattus norvegicus [5])	Mean blood pressure (Rattus norvegicus [6]) [mmHg]	Activity (Rattus norvegicus [9])	Decrease (Rattus norvegicus [10]) [%]	Activity (Rattus norvegicus [12])	Activity (Rattus norvegicus [13])	Activity (Rattus norvegicus [14])	Activity (Rattus norvegicus [15])	Decrease (Rattus norvegicus [16]) [%]	Kb (Rattus norvegicus [17]) [nM]	Activity (Rattus norvegicus [18])	Ratio [19]	Activity (Rattus norvegicus [21])	Activity (Rattus norvegicus [23])	Decrease (Rattus norvegicus [26]) [%]	Activity (Rattus norvegicus [28])	further results
CCOc1ccc(/C=C/C(=O)N2CCN(c3nc(N)c4cc(OC)c(OC)cc4n3)CC2)cc1	2	0	-11.7	-19.1	0	-16.3	1	21	0	0	1	1	13	2.19	0	0.02	2	0	24	0	Mean blood pressure (Rattus norvegicus [7]): -15.5 mmHg; Mean blood pressure (Rattus norvegicus [8]): 203 mmHg; Mean blood pressure (Rattus norvegicus [11]): -10.6 mmHg; Mean blood pressure (Rattus norvegicus [20]): -2.6 mmHg; Mean blood pressure (Rattus norvegicus [22]): -4 mmHg; Mean blood pressure (Rattus norvegicus [24]): -6.2 mmHg; Mean blood pressure (Rattus norvegicus [25]): 204 mmHg; Mean blood pressure (Rattus norvegicus [27]): -10.4 mmHg; Mean blood pressure (Rattus norvegicus [29]): -14.5 mmHg
COc1cc2nc(N3CCN(C(=O)/C=C/c4ccco4)CC3)nc(N)c2cc1OC.Cl	2	3	-16.9	-17.4	0	-16.3	0	28	1	0	1	2	15	0.141	2	0.4	2	1	41	1	Mean blood pressure (Rattus norvegicus [8]): 193 mmHg; Mean blood pressure (Rattus norvegicus [20]): -5.2 mmHg; Mean blood pressure (Rattus norvegicus [22]): -17.1 mmHg; Mean blood pressure (Rattus norvegicus [24]): -17.9 mmHg; Mean blood pressure (Rattus norvegicus [25]): 181 mmHg; Mean blood pressure (Rattus norvegicus [27]): -11.7 mmHg; Mean blood pressure (Rattus norvegicus [29]): -18.3 mmHg
COc1cc2nc(N3CCN(C(=O)c4ccco4)CC3)nc(N)c2cc1OC.Cl [PRAZOSIN HYDROCHLORIDE]	1	2	–	–	0	–	0	25	1	0	2	1	19	0.0513	2	1	1	1	27	1	Mean blood pressure (Rattus norvegicus [30]): -15.5 mmHg; Mean blood pressure (Rattus norvegicus [31]): -25.6 mmHg; Mean blood pressure (Rattus norvegicus [32]): -17.9 mmHg; Mean blood pressure (Rattus norvegicus [33]): -8.9 mmHg; Mean blood pressure (Rattus norvegicus [34]): -14.5 mmHg; Mean blood pressure (Rattus norvegicus [35]): 197 mmHg; Mean blood pressure (Rattus norvegicus [36]): -3.3 mmHg; Mean blood pressure (Rattus norvegicus [37]): 187 mmHg; Mean blood pressure (Rattus norvegicus [38]): -17.6 mmHg; Mean blood pressure (Rattus norvegicus [39]): -14.7 mmHg
